Source: patent US8580965B2, “Substituted sulfonamide compounds” (Gruenenthal GmbH, priority 2006, dated 2013)

Columns and labels:
[1] = target: T1, human B1R receptor (bradykinin 1 receptor) (Homo sapiens, UniProt P46663); assay: FLIPR Ca2+ assay (Fluo-4) on CHO K1 cells stably transfected with the human B1R gene; % activation and % inhibition at 10 μM; format: cell-based; conditions: CHO K1 hB1R cells, Ca2+ inflow after 0.5 nM Lys-Des-Arg9-bradykinin; for inhibition at 10 µM: CHO-K1, test substance 10 μM, read-out: B1R antagonism, human [10 μM] % inhibition
T1 construct: host or cells: CHO K1 cells (hB1R cells)
T1 sequence (P46663 1-353): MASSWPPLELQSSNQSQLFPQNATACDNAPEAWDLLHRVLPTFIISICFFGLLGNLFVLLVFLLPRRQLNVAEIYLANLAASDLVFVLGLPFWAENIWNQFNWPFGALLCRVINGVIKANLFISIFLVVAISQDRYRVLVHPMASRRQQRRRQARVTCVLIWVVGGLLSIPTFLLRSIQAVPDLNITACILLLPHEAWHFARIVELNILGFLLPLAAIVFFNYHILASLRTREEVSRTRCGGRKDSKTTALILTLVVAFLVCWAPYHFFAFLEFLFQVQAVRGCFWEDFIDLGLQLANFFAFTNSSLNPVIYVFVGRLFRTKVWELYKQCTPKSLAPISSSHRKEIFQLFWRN
How it was run: (§1)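 CHO K1 cells stably expressing human or rat B1R, Fluo-4 loaded, read by FLIPR (peak fluorescence). Compound at 10 µM first gives % activation versus agonist; after 10 min, agonist (human: 0.5 nM Lys-Des-Arg9-bradykinin; rat: 100 nM Des-Arg9-bradykinin) gives % inhibition relative to maximal inhibition.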

[2] = target: T2, B1R receptor of the rat (bradykinin 1 receptor) (Rattus norvegicus, UniProt P97583); assay: FLIPR Ca2+ assay (Fluo-4) on CHO K1 cells stably transfected with the B1R gene of the rat; % activation and % inhibition at 10 μM; format: cell-based; conditions: CHO K1 rB1R cells, Ca2+ inflow after 100 nM Des-Arg9-bradykinin; for inhibition at 10 µM: CHO-K1, test substance 10 μM, read-out: B1R antagonism, rat [10 μM] % inhibition
T2 construct: host or cells: CHO K1 cells (rB1R cells)
T2 sequence (P97583 1-337): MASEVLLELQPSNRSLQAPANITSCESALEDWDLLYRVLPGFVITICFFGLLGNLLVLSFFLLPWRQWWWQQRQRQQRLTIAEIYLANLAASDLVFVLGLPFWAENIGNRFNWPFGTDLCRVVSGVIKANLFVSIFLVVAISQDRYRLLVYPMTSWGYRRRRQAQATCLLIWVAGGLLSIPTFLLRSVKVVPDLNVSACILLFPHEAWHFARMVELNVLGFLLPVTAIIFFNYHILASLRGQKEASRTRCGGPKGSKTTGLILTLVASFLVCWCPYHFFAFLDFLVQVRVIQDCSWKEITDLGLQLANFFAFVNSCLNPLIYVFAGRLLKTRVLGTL
How it was run: as §1

| inhibition at 10 µM [1] [%] | inhibition at 10 µM [2] [%] | B1R antagonism, human [10 μM] % inhibition ([1]; test substance 10 μM) [%] | B1R antagonism, rat [10 μM] % inhibition ([2]; test substance 10 μM) [%] | Compound |
| --- | --- | --- | --- | --- |
| 101 | 104 |  |  | O=C(COCC1CCCCN1S(=O)(=O)c1ccccc1C(F)(F)F)N1CCC(O)(c2cccc(C(F)(F)F)c2)CC1 (centres unmarked) [Example 177, 1-(4-hydroxy-4-(3-(trifluoromethyl)phenyl)piperidin-1-yl)-2-((1-(2-(trifluoromethyl)phenylsulfonyl)piperidin-2-yl)methoxy)ethanone] |
|  |  | 98.39 | 97.87 | Cc1cc(S(=O)(=O)N2CCCCC2CCC(=O)N2CCC(O)(c3cccnc3)CC2)c(C)cc1Cl (centres unmarked) [Example 122, 3-(1-(4-chloro-2,5-dimethylphenylsulfonyl)piperidin-2-yl)-1-(4-hydroxy-4-(pyridin-3-yl)piperidin-1-yl)propan-1-one] |
| 103 | 96.5 |  |  | O=C(COCC1CCCCN1S(=O)(=O)c1c(Cl)cccc1Cl)N1CCC(O)(c2cccnc2)CC1 (centres unmarked) [Example 196, 2-((1-(2,6-dichlorophenylsulfonyl)piperidin-2-yl)methoxy)-1-(4-hydroxy-4-(pyridin-3-yl)piperidin-1-yl)ethanone] |
| 102 | 101 |  |  | O=C(COCC1CCCN1S(=O)(=O)c1c(Cl)cccc1Cl)N1CCC(O)(c2ccc(Br)cc2)CC1 (centres unmarked) [Example 219, 1-(4-(4-bromophenyl)-4-hydroxypiperidin-1-yl)-2-((1-(2,6-dichlorophenylsulfonyl)pyrrolidin-2-yl)methoxy)ethanone] |
| 86.8 | 88.2 |  |  | COc1cc(C)c(S(=O)(=O)N(C)CCOCCC(=O)N2CCC(O)(Cc3ccccc3)CC2)c(C)c1 [Example 277, N-(2-(3-(4-benzyl-4-hydroxypiperidin-1-yl)-3-oxopropoxy)ethyl)-4-methoxy-N,2,6-trimethylphenylsulfonamide] |
| 20.5 | 71.1 |  |  | COc1cc(C)c(S(=O)(=O)N2CCC(OCC(=O)N3CCC(O)(c4ccccn4)CC3)C2)c(C)c1 (centres unmarked) [Example 21, 1-(4′-hydroxy-3′,4′,5′,6′-tetrahydro-2′H-[2,4′]bipyridinyl-1′-yl)-2-[1-(4-methoxy-2,6-dimethyl-phenylsulfonyl)-pyrrolidin-3-yloxy]-ethanone] |
| 106 | 100 |  |  | COc1cc(C)c(S(=O)(=O)N(CCOCC(=O)N2CCC(O)(c3ccc(Br)cc3)CC2)CC2CC2)c(C)c1C [Example 205, N-(2-(2-(4-(4-bromophenyl)-4-hydroxypiperidin-1-yl)-2-oxoethoxy)ethyl)-N-(cyclopropylmethyl)-4-methoxy-2,3,6-trimethylphenylsulfonamide] |
| 100 | 92.4 |  |  | COc1cc(C)c(S(=O)(=O)N(C)CCOCCC(=O)N2CCC(O)(c3ccc(Cl)cc3)CC2)c(C)c1 [Example 275, N-(2-(3-(4-(4-chlorophenyl)-4-hydroxypiperidin-1-yl)-3-oxopropoxy)ethyl)-4-methoxy-N,2,6-trimethylphenylsulfonamide] |
| 36.4 | 103 |  |  | O=C(COCC1CCCCN1S(=O)(=O)c1c(Cl)cc(C(F)(F)F)cc1Cl)N1CCC(O)(c2cccc(C(F)(F)F)c2)CC1 (centres unmarked) [Example 164, 2-((1-(2,6-dichloro-4-(trifluoromethyl)phenylsulfonyl)piperidin-2-yl)methoxy)-1-(4-hydroxy-4-(3-(trifluoromethyl)phenyl)piperidin-1-yl)ethanone] |
| 9.45 | 28.4 |  |  | O=C(COCc1sccc1N(Cc1ccccc1)S(=O)(=O)c1ccc(Cl)c(Cl)c1)N1CCC(O)(Cc2ccccc2)CC1 [Example 69, N-benzyl-N-{2-[2-(4-benzyl-4-hydroxy-piperidin-1-yl)-2-oxo-ethoxymethyl]-thiophen-3-yl}-3,4-dichloro-phenylsulfonamide] |
| 38.9 | 70.2 |  |  | COc1cc(C)c(S(=O)(=O)N2Cc3ccccc3CC2COCC(=O)N2CCC(O)(c3cccc(C(F)(F)F)c3)CC2)c(C)c1C (centres unmarked) [Example 233, 1-(4-hydroxy-4-(3-(trifluoromethyl)phenyl)piperidin-1-yl)-2-((2-(4-methoxy-2,3,6-trimethylphenylsulfonyl)-1,2,3,4-tetrahydroisoquinolin-3-yl)methoxy)ethanone] |
| 101 | 97.9 |  |  | O=C(CCC1CCCCN1S(=O)(=O)c1ccc(Cl)cc1Cl)N1CCC(O)(c2cccnc2)CC1 (centres unmarked) [Example 118, 3-(1-(2,4-dichlorophenylsulfonyl)piperidin-2-yl)-1-(4-hydroxy-4-(pyridin-3-yl)piperidin-1-yl)propan-1-one] |
| 70.7 | 92.8 |  |  | O=C(COCC1CCc2ccccc2N1S(=O)(=O)c1ccc(Cl)c(Cl)c1)N1CCC(O)(c2ccccn2)CC1 (centres unmarked) [Example 146, 2-((1-(3,4-dichlorophenylsulfonyl)-1,2,3,4-tetrahydroquinolin-2-yl)methoxy)-1-(4-hydroxy-4-(pyridin-2-yl)piperidin-1-yl)ethanone] |
| 57.3 | 97.4 |  |  | COc1cc(C)c(S(=O)(=O)N(CCOCC(=O)N2CCC(O)(c3ccc(Cl)c(C(F)(F)F)c3)CC2)CC(C)C)c(C)c1C [Example 238, N-(2-(2-(4-(4-chloro-3-(trifluoromethyl)phenyl)-4-hydroxypiperidin-1-yl)-2-oxoethoxy)ethyl)-N-isobutyl-4-methoxy-2,3,6-trimethylphenylsulfonamide] |
| 66 | 29.1 |  |  | COc1ccc(S(=O)(=O)N2Cc3ccccc3C[C@H]2COCC(=O)N2CCC(O)(c3cccnc3)CC2)cc1 [Example 134, (S)-1-(4-hydroxy-4-(pyridin-3-yl)piperidin-1-yl)-2-((2-(4-methoxyphenylsulfonyl)-1,2,3,4-tetrahydroisoquinolin-3-yl)methoxy)ethanone] |
| 106 | 101 |  |  | COc1cc(C)c(S(=O)(=O)N2CCCCC2CCC(=O)N2CCC(O)(c3cccnc3)CC2)c(C)c1 (centres unmarked) [Example 112, 1-(4-hydroxy-4-(pyridin-3-yl)piperidin-1-yl)-3-(1-(4-methoxy-2,6-dimethylphenylsulfonyl)piperidin-2-yl)propan-1-one] |
| 98.6 | 96.1 |  |  | Cc1cc(Cl)cc(Cl)c1S(=O)(=O)N(C)CCOCC(=O)N1CCC(O)(c2ccccc2)CC1 [Example 105, 2,4-dichloro-N-(2-(2-(4-hydroxy-4-phenylpiperidin-1-yl)-2-oxoethoxy)ethyl)-N,6-dimethylphenylsulfonamide] |
| 87.8 | 98.5 |  |  | CN(CCOCC(=O)N1CCC(O)(c2ccc(Br)cc2)CC1)S(=O)(=O)c1cc(Cl)sc1Cl [Example 261, N-(2-(2-(4-(4-bromophenyl)-4-hydroxypiperidin-1-yl)-2-oxoethoxy)ethyl)-2,5-dichloro-N-methylthiophene-3-sulfonamide] |
| 105 | 100 |  |  | COc1cc(C)c(S(=O)(=O)N(CCOCC(=O)N2CCC(O)(c3ccccc3)CC2)CC2CC2)c(C)c1C [Example 206, N-(cyclopropylmethyl)-N-(2-(2-(4-hydroxy-4-phenylpiperidin-1-yl)-2-oxoethoxy)ethyl)-4-methoxy-2,3,6-trimethylphenylsulfonamide] |
| 86 | 104 |  |  | O=C(COCC1CCCCN1S(=O)(=O)c1ccccc1C(F)(F)F)N1CCC(O)(c2ccccc2)CC1 (centres unmarked) [Example 175, 1-(4-hydroxy-4-phenylpiperidin-1-yl)-2-((1-(2-(trifluoromethyl)phenylsulfonyl)piperidin-2-yl)methoxy)ethanone] |
| 97.8 | 93.5 |  |  | COc1cc(C)c(S(=O)(=O)N2Cc3ccccc3CC2COCC(=O)N2CCC(O)(c3cccnc3)CC2)c(C)c1C (centres unmarked) [Example 195, 1-(4-hydroxy-4-(pyridin-3-yl)piperidin-1-yl)-2-((2-(4-methoxy-2,3,6-trimethylphenylsulfonyl)-1,2,3,4-tetrahydroisoquinolin-3-yl)methoxy)ethanone] |
| -9.71 | 10.8 |  |  | O=C(COC1CCCN(S(=O)(=O)c2ccccc2)C1)N1CCC(O)(c2ccccn2)CC1 (centres unmarked) [Example 51, 2-(1-phenylsulfonyl-piperidin-3-yloxy)-1-(4′-hydroxy-3′,4′,5′,6′-tetrahydro-2′H-[2,4′]bipyridinyl-1′-yl)-ethanone] |
